pIC50: −log10 of the molar value.

For the first test, the species on record is Homo sapiens. The experiment in a line: Potency index, ratio of voglibose IC50 to compound IC50 for alpha glucosidase (unknown origin).
Conditions: not given; call rule not given here
Turning to `O=C(CCc1ccc(O)cc1)Nc1ccc(CCC(=O)N2C[C@@H](O)[C@H](O)C2)cc1`, the Ratio IC50 is 3 to 4.
Still for that read-out and setting: the figure for `Nc1ccc(CCC(=O)N2C[C@@H](O)[C@H](O)C2)cc1` is 3 to 4; for `O=C(CCc1ccc(O)cc1)Nc1ccc(CCC(=O)N2C[C@H](O)[C@@H](O)C2)cc1` it is 3 to 4.

Molecular target in the next test: not listed separately
The test is described as follows: Inhibition of alpha glucosidase (unknown origin) using PNPG as substrate preincubated for 10 mins followed by substrate addition measured after 30 mins.
Conditions: not given
Set-up: species or system Homo sapiens.
`CO[C@H]1C=CC(=O)N1C(=O)CCc1ccccc1` showed a pIC50 of 3.37.
Same read-out and setting: the value for `O=C1C=C[C@H](O)N1C(=O)CCc1ccccc1` was 2.11.

The species entered for another test is Homo sapiens. The experiment in a line: Potency index, ratio of acarbose IC50 to compound IC50 for alpha glucosidase (unknown origin).
Conditions: not given
`O=C(CCc1ccc(O)cc1)Nc1ccc(CCC(=O)N2C[C@@H](O)[C@H](O)C2)cc1`: the Ratio IC50 lay in the range of 3 to 4.
Same read-out and setting: the value for `Nc1ccc(CCC(=O)N2C[C@@H](O)[C@H](O)C2)cc1` was 3 to 4; that for `O=C(CCc1ccc(O)cc1)Nc1ccc(CCC(=O)N2C[C@H](O)[C@@H](O)C2)cc1` was 3 to 4.

Tested on in another test: not listed separately
The test is described as follows: Inhibition of alpha glucosidase (unknown origin) using PNPG as substrate preincubated for 15 to 20 mins followed by substrate addition measured after 45 to 60 mins by spectrophotometric method.
Conditions: not given
`O=C(/C=C/c1ccc(C(F)(F)F)cc1)Nc1ccc(CCC(=O)N2C[C@H](O)[C@@H](O)C2)cc1`: the IC50 entry is listed as “Not Active”.
`O=C(CCc1ccc([N+](=O)[O-])cc1)N1C[C@@H](O)[C@H](O)C1`: the IC50 result is recorded as “Not Active”.
As to `O=C(CCc1ccccc1F)N1C[C@H](O)[C@@H](O)C1`, the IC50 entry is listed as “Not Active”.
Same read-out and setting: the value for `CC(C)(C)OC(=O)Nc1ccc(CCC(=O)N2C[C@@H](O)[C@H](O)C2)cc1` was “Not Active”; that for `O=C(/C=C/c1ccc(O)cc1)Nc1ccc(CCC(=O)N2C[C@H](O)[C@@H](O)C2)cc1` was “Not Active”.
On the same count and under the same terms, the value for `O=C(CCc1ccc(C(F)(F)F)cc1)Nc1ccc(CCC(=O)N2C[C@@H](O)[C@H](O)C2)cc1` was “Not Active”; that for `O=C(/C=C/c1ccc(O)cc1)Nc1ccc(CCC(=O)N2C[C@@H](O)[C@H](O)C2)cc1` was “Not Active”.
Still for that read-out and setting: the value for `O=C(CCc1ccc(C(F)(F)F)cc1)Nc1ccc(CCC(=O)N2C[C@H](O)[C@@H](O)C2)cc1` was “Not Active”.
Consider `O=C(/C=C/c1ccc(C(F)(F)F)cc1)Nc1ccc(CCC(=O)N2C[C@@H](O)[C@H](O)C2)cc1`, for which the IC50 entry was “Not Active”.
Same read-out and setting: the value for `CC(C)(C)OC(=O)Nc1ccc(CCC(=O)N2C[C@H](O)[C@@H](O)C2)cc1` was “Not Active”; that for `O=C(CCc1ccc(F)cc1)Nc1ccc(CCC(=O)N2C[C@H](O)[C@@H](O)C2)cc1` was “Not Active”.
Still for that read-out and setting: the value for `O=C(/C=C/c1ccccc1C(F)(F)F)N1C[C@@H](O)[C@H](O)C1` was “Active”.
Consider `O=C(CCc1ccc(F)cc1)Nc1ccc(CCC(=O)N2C[C@@H](O)[C@H](O)C2)cc1`, for which the IC50 entry is reported as “Not Active”.
The same measure, in the same setting: the value for `O=C(CCc1ccc(NS(=O)(=O)c2ccc(F)cc2)cc1)N1C[C@H](O)[C@@H](O)C1` was “Active”; that for `O=C(CCc1ccccc1)N1C[C@H](O)[C@@H](O)C1` was “Not Active”.
Same read-out and setting: the entry for `O=S(=O)(c1ccc(OC(F)(F)F)cc1)N1C[C@@H](O)[C@H](O)C1` is “Active”; for `O=C(/C=C/c1ccsc1)N1C[C@H](O)[C@@H](O)C1` it is “Not Active”; for `O=C(CCc1ccc(NS(=O)(=O)c2ccc(F)cc2)cc1)N1C[C@@H](O)[C@H](O)C1` it is “Active”.
Still for that read-out and setting: the entry for `O=C(CCc1ccccc1)N1C[C@@H](O)[C@H](O)C1` is “Not Active”; for `O=C(/C=C/c1ccsc1)N1C[C@@H](O)[C@H](O)C1` it is “Not Active”; for `O=C(CCc1ccccc1F)N1C[C@@H](O)[C@H](O)C1` it is “Not Active”.

Staying with this test, now noted: read-out: IC50.
As to `O=C(CCc1ccc(C(F)(F)F)cc1)N1C[C@@H](O)[C@@H](O)C1`, the pIC50 was 3.05.
Same read-out and setting: the value for `O=C(CCc1ccc(C(F)(F)F)cc1)N1C[C@@H](O)[C@H](O)C1` was 3.07; that for `O=C(Nc1ccc(CCC(=O)N2C[C@@H](O)[C@H](O)C2)cc1)c1ccsc1` was 3.32.
Still for that read-out and setting: the value for `Cn1c(C(=O)N2C[C@@H](O)[C@H](O)C2)cc2ccccc21` was 3.27; that for `O=C(CCc1ccncc1)N1C[C@@H](O)[C@H](O)C1` was 3.01; that for `O=C(Nc1ccc(CCC(=O)N2C[C@H](O)[C@@H](O)C2)cc1)c1ccsc1` was 3.31.
The same measure, in the same setting: the value for `O=C(CCc1ccc(N(S(=O)(=O)c2ccc(C(F)(F)F)cc2)S(=O)(=O)c2ccc(C(F)(F)F)cc2)cc1)N1C[C@H](O)[C@@H](O)C1` was 3.94; that for `OCCN1C[C@H](O)[C@@H](O)[C@H](O)[C@H]1CO` [MIGLITOL] was 3.34.
As to `O=C(CCc1ccc(NS(=O)(=O)c2ccc(C(F)(F)F)cc2)cc1)N1C[C@@H](O)[C@H](O)C1`, the pIC50 was 3.37.
On the same count and under the same terms, the value for `C[C@H]1O[C@H](O[C@H]2[C@H](O)[C@@H](O)[C@@H](O[C@H]3[C@H](O)[C@@H](O)C(O)O[C@@H]3CO)O[C@@H]2CO)[C@H](O)[C@@H](O)[C@@H]1N[C@H]1C=C(CO)[C@@H](O)[C@H](O)[C@H]1O` (stereo not given in full) [ACARBOSE] was 3.44; that for `Nc1ccc(CCC(=O)N2C[C@H](O)[C@@H](O)C2)cc1` was 3.73.
Same read-out and setting: the value for `Nc1ccc(CCC(=O)Nc2ccc(CCC(=O)N3C[C@@H](O)[C@H](O)C3)cc2)cc1` was 3.59; that for `O=C(/C=C/c1ccc(O)cc1)N1C[C@H](O)[C@@H](O)C1` was 3.30.
For `Cn1cc(C(=O)N2C[C@@H](O)[C@H](O)C2)c2ccccc21`, the pIC50 was 3.28.
Same read-out and setting: the value for `O=C(CCc1ccc(C(F)(F)F)cc1)N1C[C@H](O)[C@@H](O)C1` was 3.06; that for `O=C(CCc1ccc(O)cc1)Nc1ccc(CCC(=O)N2C[C@@H](O)[C@H](O)C2)cc1` was 3.98.
The same measure, in the same setting: the value for `O=C(CCc1ccsc1)N1C[C@H](O)[C@@H](O)C1` was 3.10; that for `Cn1cc(C(=O)N2C[C@H](O)[C@@H](O)C2)c2ccccc21` was 3.23; that for `O=C(/C=C/c1ccccc1F)N1C[C@H](O)[C@@H](O)C1` was 3.08.
Still for that read-out and setting: the figure for `O=C(CCc1ccccc1C(F)(F)F)N1C[C@H](O)[C@@H](O)C1` is 3.91; for `CC(C)(C)OC(=O)Nc1ccc(CCC(=O)N2C[C@@H](O)[C@@H](O)C2)cc1` it is 3.26; for `O=C(/C=C/c1ccc(O)cc1)N1C[C@@H](O)[C@H](O)C1` it is 3.26.
With `O=C(/C=C/c1ccccc1)N1C[C@H](O)[C@@H](O)C1`, the pIC50 is 3.13.
Still for that read-out and setting: the figure for `O=C(CCc1ccncc1)N1C[C@H](O)[C@@H](O)C1` is 3.03.
The same measure, in the same setting: the figure for `O=C(/C=C/c1ccccc1C(F)(F)F)N1C[C@H](O)[C@@H](O)C1` is 3.18; for `Nc1ccc(CCC(=O)Nc2ccc(CCC(=O)N3C[C@H](O)[C@@H](O)C3)cc2)cc1` it is 3.58; for `O=C(/C=C/c1ccc(C(F)(F)F)cc1)N1C[C@@H](O)[C@@H](O)C1` it is 3.20.
Still for that read-out and setting: the value for `O=S(=O)(c1ccc(OC(F)(F)F)cc1)N1C[C@H](O)[C@@H](O)C1` was 3.64.
With `O=C(/C=C/c1ccccc1)N1C[C@@H](O)[C@H](O)C1`, the pIC50 was 3.09.
On the same count and under the same terms, the value for `O=C(CCc1ccccc1C(F)(F)F)N1C[C@@H](O)[C@H](O)C1` was 3.56.
Same read-out and setting: the value for `O=C(CCc1ccsc1)N1C[C@@H](O)[C@H](O)C1` was 3.14.
Same read-out and setting: the figure for `O=C(CCc1ccc(O)cc1)N1C[C@H](O)[C@@H](O)C1` is 3.22.
With `O=S(=O)(c1ccc(C(F)(F)F)cc1)N1C[C@H](O)[C@@H](O)C1`, the pIC50 was 3.30.
On the same count and under the same terms, the figure for `O=S(=O)(c1ccc(O)cc1)N1C[C@@H](O)[C@H](O)C1` is 3.22.
Still for that read-out and setting: the figure for `O=C(CCc1ccc(NS(=O)(=O)c2ccc(C(F)(F)F)cc2)cc1)N1C[C@H](O)[C@@H](O)C1` is 3.33.
On the same count and under the same terms, the figure for `O=C(/C=C/c1ccc(C(F)(F)F)cc1)N1C[C@@H](O)[C@H](O)C1` is 3.22; for `O=C(/C=C/c1ccc(F)cc1)Nc1ccc(CCC(=O)N2C[C@H](O)[C@@H](O)C2)cc1` it is 3.70; for `O=C(/C=C/c1ccc(C(F)(F)F)cc1)N1C[C@H](O)[C@@H](O)C1` it is 3.19.
As for `O=C(/C=C/c1ccccc1F)N1C[C@@H](O)[C@H](O)C1`, the negative logarithm of the IC50 (pIC50) is 3.06.
In the case of `Nc1ccc(CCC(=O)N2C[C@@H](O)[C@@H](O)C2)cc1`, the pIC50 was 3.52.
Still for that read-out and setting: the figure for `OCC(CO)N[C@H]1C[C@](O)(CO)[C@@H](O)[C@H](O)[C@H]1O` [VOGLIBOSE] is 3.49; for `O=S(=O)(c1ccc(O)cc1)N1C[C@H](O)[C@@H](O)C1` it is 3.34.
The same measure, in the same setting: the value for `Nc1ccc(CCC(=O)N2C[C@@H](O)[C@H](O)C2)cc1` was 3.97; that for `O=C(/C=C/c1ccc(F)cc1)Nc1ccc(CCC(=O)N2C[C@@H](O)[C@H](O)C2)cc1` was 3.95; that for `O=C(CCc1ccc(O)cc1)Nc1ccc(CCC(=O)N2C[C@H](O)[C@@H](O)C2)cc1` was 4.01.
The same measure, in the same setting: the value for `O=C(CCc1ccc([N+](=O)[O-])cc1)N1C[C@H](O)[C@@H](O)C1` was 3.11; that for `O=C(CCc1ccc(O)cc1)N1C[C@@H](O)[C@H](O)C1` was 3.18; that for `Cn1c(C(=O)N2C[C@H](O)[C@@H](O)C2)cc2ccccc21` was 3.25.

The species entered for another test is Homo sapiens. The experiment in a line: Potency index, ratio of miglitol IC50 to compound IC50 for alpha glucosidase (unknown origin).
Conditions: not given
Regarding `O=C(CCc1ccc(O)cc1)Nc1ccc(CCC(=O)N2C[C@@H](O)[C@H](O)C2)cc1`, the Ratio IC50 lay within 3 to 4.
On to `Nc1ccc(CCC(=O)N2C[C@@H](O)[C@H](O)C2)cc1`, for which the Ratio IC50 fell in the range of 3 to 4.
Same read-out and setting: the figure for `O=C(CCc1ccc(O)cc1)Nc1ccc(CCC(=O)N2C[C@H](O)[C@@H](O)C2)cc1` is 3 to 4.

As a reminder, the pIC50 is the IC50 on a negative log10 scale, so that one unit is a factor of ten.

Source of the values: ChEMBL document CHEMBL4020765, “Synthesis and α-glucosidase inhibition activity of dihydroxy pyrrolidines” (Bioorg Med Chem Lett, 2017).
